Literature values, collected in patent US12419869B2, “Methods of treating multiple sclerosis” (Vanda Pharmaceuticals Inc., priority 2021, dated 2025).

Tested on: adult subjects with relapsing MS
Details: comparison values; cited from earlier work

Row | SMILES | ECG HR effect: time of nadir post-dose (other S1P modulators) [h]
1 | CCc1cc(/C(C)=N/OCc2ccc(C3CCCCC3)c(C(F)(F)F)c2)ccc1CN1CC(C(=O)O)C1 [Siponimod] | 3 to 4
2 | CCCCCCCCc1ccc(CCC(N)(CO)CO)cc1 [Fingolimod] | ~6
